Source: US7635663B2, “Method for thinning fruit blossoms using eugenol” (The United States of America as represented by the …, priority 2006, dated 2009)
Like-named read-outs stand apart in the source and are kept apart here.

Key:
[1] = system: apple trees (Malus domestica 'Ace Spur Red Delicious' on M.7 rootstock); assay type: in vivo; conditions: for Flowers without wilted pistils and stamens 24 hr after application / Fruit (1 to 2 cm in diameter) one month after application / Fruit (2 to 4 cm in diameter) two months after application: Apple; for Flowers without wilted pistils and stamens 24 hr after application: of 100 flower clusters, spring 2003; for Fruit (1 to 2 cm in diameter) one month after application / Fruit (2 to 4 cm in diameter) two months after application: same 100 flower clusters, five fruit each
Procedure: Eugenol was applied to apple trees (Malus domestica ‘Ace Spur Red Delicious’ on M.7 rootstock) on 23 Apr. 2003 when “king” blossoms had been fully opened and subtending flowers were just opening. Temperatures were 18° C. under partly sunny conditions. One-hundred five-cluster groups of flowers were evaluated for damage 24 hr after application. Surviving fruit from the original clusters were counted 1 and 2 mo after application. Apples were harvested on 17 Sep. 2003 from each treated tree. Total fruit number and weight and size of individual fruit were measured.

[2] = system: 'Bisbee Spur Delicious' on MM.111 apple trees; experiment: Apple blossom thinning with eugenol and ATS, 2004; assay type: in vivo, Malus domestica; conditions: for Average fruit weight (g) / Total yield per tree (no.) / Flower burn back (% of flowers injured): Apple 'Bisbee'; for Average fruit weight (g) / Total yield per tree (no.) / Effect on yield: 2004; for Flower burn back (% of flowers injured): April 2004; for Effect on yield: Apple
Procedure: Each tree was an experimental unit, surrounded by buffer trees, with 4 single tree replications arranged in a completely randomized design.
Four branches per tree, each with 25 flowers, were measured; two branches opposite each other were perpendicular to the drive alley and the other two branches were opposite each other and parallel to the drive alley.

[3] = system: peach trees (Prunus persica L. 'Redhaven' on Lovell rootstock); assay type: in vivo; conditions: for Fruit (1 to 2 cm in diameter) one month after application / Fruit (2 to 4 cm in diameter) two months after application / Flowers without wilted pistils and stamens 24 hr after application: of 100 flowers; for Flowers without wilted pistils and stamens 24 hr after application: spring 2003
Procedure: Materials and methods: Initial work determined general foliar and blossom injury response to increasing rates of eugenol in apple and peach trees. Eugenol was prepared as a suspension in water and applied with a hand-held sprayer (Sure Shot, Milwaukee Sprayer Mfg. Co., Inc., Milwaukee, Wis.) to flowers to the point of drip. Spray was applied to peach trees (Prunus persica L. ‘Redhaven’ on Lovell rootstock) at 60 psi when air temperature was approximately 21° C. with sunny conditions. Naturally-derived eugenol, extracted from cinnamon (Cinnamomum zeylanicum) or clove (Syzgium aromaticum), was obtained from Citrus and Allied (Floral Park, N.Y.). Peach tree flowers were approximately 60% in bloom when eugenol was applied on 14 Apr. 2003. One tree received one application of each concentration of eugenol. One-hundred flowers per tree, uniformly distributed throughout the crown were selected for measurement 24 hr, 1 mo, and 2 mos after application. At 24 hr, flowers with wilted pistils and stamens were considered killed and nonviable. Surviving fruit were counted 1 and 2 mo after application. Peaches were harvested on 7 Aug. 2003 from each treated tree. Total fruit number and weight and size of individual fruit were measured.

[4] = system: 'Gala' on M.26 apple trees; assay type: in vivo, Malus domestica; conditions: for Fruit (no./tree) / Fruit weight (kg/tree) / Individual fruit weight: Apple 'Gala'
Procedure: On Apr. […] Treatments were arranged in 4-tree plots and there were 4 blocks containing all 8 treatments. Data was collected from 2 trees per plot, so each treatment was an average of 8 trees. Data was analyzed by analysis of variance and Duncan's Multiple Range Test.

[5] = system: 'Redhaven' on Lovell peach; experiment: Peach blossom thinning with different thinning agents, mist blower back pack sprayer, 2004; assay type: in vivo, Prunus persica
Procedure: In 2004, fewer concentrations of eugenol were tested in comparison with other chemical blossom thinners in apple and peach. […] 2004 with a pressurized power mist blower back pack sprayer. Peach trees had been planted in April 1997 with a 3-m spacing between trees. Treatments included eugenol and Matran® each applied at 1, 2, 4, and 8%. […] Each tree was an experimental unit, buffer trees surrounded each treated tree, and there were 5 replications arranged in a completely randomized design.
Response variables included (1) percent flowers wilted 24 hr after application based on a 100 flower (peach) or flower cluster (apple) sample per tree; (2) number apple fruit retained after June drop from the same 100-flower sample per tree; (3) number and weight of fruit per tree at harvest by size category; (4) visual estimation from two people of foliar and shoot damage. Four branches per tree, each with 25 flowers, were measured; two branches opposite each other were perpendicular to the drive alley and the other two branches were opposite each other and parallel to the drive alley.

Compound: C=CCc1ccc(O)c(OC)c1 [Eugenol, 2-methoxy-4-(2-propenyl)phenol]
- Concentration at which flower injury was apparent ([1]; Apple flowers, 2003): 1.5%
- Flowers without wilted pistils and stamens 24 hr after application ([1]; 0.5% active ingredient): 100%
- Fruit (1 to 2 cm in diameter) one month after application ([1]; 0.5% active ingredient): 18%
- Fruit (2 to 4 cm in diameter) two months after application ([1]; 0.5% active ingredient): 16%
- Flowers without wilted pistils and stamens 24 hr after application ([1]; 1% active ingredient): 100%
- Fruit (1 to 2 cm in diameter) one month after application ([1]; 1% active ingredient): 9%
- Fruit (2 to 4 cm in diameter) two months after application ([1]; 1% active ingredient): 17%
- Flowers without wilted pistils and stamens 24 hr after application ([1]; 1.5% active ingredient): 93%
- Fruit (1 to 2 cm in diameter) one month after application ([1]; 1.5% active ingredient): 10%
- Fruit (2 to 4 cm in diameter) two months after application ([1]; 1.5% active ingredient): 12%
- Flowers without wilted pistils and stamens 24 hr after application ([1]; 2% active ingredient): 93%
- Fruit (1 to 2 cm in diameter) one month after application ([1]; 2% active ingredient): 10%
- Fruit (2 to 4 cm in diameter) two months after application ([1]; 2% active ingredient): 10%
- Flowers without wilted pistils and stamens 24 hr after application ([1]; 4% active ingredient): 68%
- Fruit (1 to 2 cm in diameter) one month after application ([1]; 4% active ingredient): 8%
- Fruit (2 to 4 cm in diameter) two months after application ([1]; 4% active ingredient): 6%
- Flowers without wilted pistils and stamens 24 hr after application ([1]; 6% active ingredient): 43%
- Fruit (1 to 2 cm in diameter) one month after application ([1]; 6% active ingredient): 1%
- Fruit (2 to 4 cm in diameter) two months after application ([1]; 6% active ingredient): 2%
- Flowers without wilted pistils and stamens 24 hr after application ([1]; 8% active ingredient): 32%
- Fruit (1 to 2 cm in diameter) one month after application ([1]; 8% active ingredient): 2%
- Fruit (2 to 4 cm in diameter) two months after application ([1]; 8% active ingredient): 2%
- Flowers without wilted pistils and stamens 24 hr after application ([1]; 10% active ingredient): 27%
- Fruit (1 to 2 cm in diameter) one month after application ([1]; 10% active ingredient): 1%
- Fruit (2 to 4 cm in diameter) two months after application ([1]; 10% active ingredient): 0%
- Fruit or leaf injury ([1]; in vivo): no fruit or leaf injury
- Phytotoxicity by 2 months after application ([1]; in vivo): no sign of eugenol-induced phytotoxicity
- Average fruit weight (g) ([2]; rate 2%): 152 a g
- Total yield per tree (no.) ([2]; rate 2%): 543 a no.
- Flower burn back (% of flowers injured) ([2]; rate 2%): 45 a %
- Average fruit weight (g) ([2]; rate 4%): 155 a g
- Total yield per tree (no.) ([2]; rate 4%): 462 a no.
- Flower burn back (% of flowers injured) ([2]; rate 4%): 50 a %
- Average fruit weight (g) ([2]; rate 6%): 167 a g
- Total yield per tree (no.) ([2]; rate 6%): 443 a no.
- Flower burn back (% of flowers injured) ([2]; rate 6%): 53 a %
- Effect on yield [2]: did not affect yield
- Concentration at which flower injury was apparent ([3]; Peach flowers, 2003): 1.5%
- Fruit (1 to 2 cm in diameter) one month after application ([3]; Peach, 0.5% active ingredient): 64%
- Fruit (2 to 4 cm in diameter) two months after application ([3]; Peach, 0.5% active ingredient): 40%
- Flowers without wilted pistils and stamens 24 hr after application ([3]; Peach, 0.5% active ingredient): 100%
- Fruit (1 to 2 cm in diameter) one month after application ([3]; Peach, 1% active ingredient): 28%
- Fruit (2 to 4 cm in diameter) two months after application ([3]; Peach, 1% active ingredient): 16%
- Flowers without wilted pistils and stamens 24 hr after application ([3]; Peach, 1% active ingredient): 100%
- Fruit (1 to 2 cm in diameter) one month after application ([3]; Peach, 1.5% active ingredient): 36%
- Fruit (2 to 4 cm in diameter) two months after application ([3]; Peach, 1.5% active ingredient): 16%
- Flowers without wilted pistils and stamens 24 hr after application ([3]; Peach, 1.5% active ingredient): 95%
- Fruit (1 to 2 cm in diameter) one month after application ([3]; Peach, 2% active ingredient): 20%
- Fruit (2 to 4 cm in diameter) two months after application ([3]; Peach, 2% active ingredient): 6%
- Flowers without wilted pistils and stamens 24 hr after application ([3]; Peach, 2% active ingredient): 85%
- Fruit (1 to 2 cm in diameter) one month after application ([3]; Peach, 4% active ingredient): 20%
- Fruit (2 to 4 cm in diameter) two months after application ([3]; Peach, 4% active ingredient): 5%
- Flowers without wilted pistils and stamens 24 hr after application ([3]; Peach, 4% active ingredient): 62%
- Fruit (1 to 2 cm in diameter) one month after application ([3]; Peach, 6% active ingredient): 22%
- Fruit (2 to 4 cm in diameter) two months after application ([3]; Peach, 6% active ingredient): 5%
- Flowers without wilted pistils and stamens 24 hr after application ([3]; Peach, 6% active ingredient): 50%
- Fruit (1 to 2 cm in diameter) one month after application ([3]; Peach, 8% active ingredient): 17%
- Fruit (2 to 4 cm in diameter) two months after application ([3]; Peach, 8% active ingredient): 3%
- Flowers without wilted pistils and stamens 24 hr after application ([3]; Peach, 8% active ingredient): 39%
- Fruit (1 to 2 cm in diameter) one month after application ([3]; Peach, 10% active ingredient): 0%
- Fruit (2 to 4 cm in diameter) two months after application ([3]; Peach, 10% active ingredient): 5%
- Flowers without wilted pistils and stamens 24 hr after application ([3]; Peach, 10% active ingredient): 31%
- Time after application until peach flowers began to appear bleached and leaf tips developed necrotic lesions ([3]; Peach, 2003): ≤ 1 h
- Fruit or leaf injury ([3]; in vivo): No fruit or leaf injury
- Phytotoxicity by 2 months after application ([3]; in vivo): no sign of eugenol-induced phytotoxicity
- Fruit (no./tree) ([4]; thinner applied at 4%, 2005): 137 no./tree
- Fruit weight (kg/tree) ([4]; thinner applied at 4%, 2005): 20.5 kg/tree
- Individual fruit weight ([4]; thinner applied at 4%, 2005): 148 g
- Fruit (no./tree) ([4]; thinner applied at 6%, 2005): 86 no./tree
- Fruit weight (kg/tree) ([4]; thinner applied at 6%, 2005): 10.2 kg/tree
- Individual fruit weight ([4]; thinner applied at 6%, 2005): 129 g
- Leaf injury ([4]; in vivo): injury was superficial, did not persist, and was not observed within four weeks of application
- Rates at which fruit number was reduced [5]; 2004: higher than 2%
- Average fruit weight (g) ([5]; rate 1%, 2004): 76 cde g
- Total yield per tree (no.) ([5]; rate 1%, 2004): 684 a no.
- Flower burn back (% of flowers injured) ([5]; rate 1%, April 2004): 15 b^a %
- Average fruit weight (g) ([5]; rate 2%, 2004): 87 bcde g
- Total yield per tree (no.) ([5]; rate 2%, 2004): 384 bc no.
- Flower burn back (% of flowers injured) ([5]; rate 2%, April 2004): 27 ab %
- Flower burn back (% of flowers injured) ([5]; rate 2%, April 2004, listed as eugenol): 27%
- Average fruit weight (g) ([5]; rate 4%, 2004): 103 abc g
- Total yield per tree (no.) ([5]; rate 4%, 2004): 470 abc no.
- Flower burn back (% of flowers injured) ([5]; rate 4%, April 2004): 39 ab %
- Flower burn back (% of flowers injured) ([5]; rate 4%, April 2004, listed as eugenol): 49%
- Average fruit weight (g) ([5]; rate 8%, 2004): 112 ab g
- Total yield per tree (no.) ([5]; rate 8%, 2004): 404 bc no.
- Flower burn back (% of flowers injured) ([5]; rate 8%, April 2004): 49 a %
- Flower burn back (% of flowers injured) ([5]; rate 8%, April 2004, listed as eugenol): approximately 50%

Compound: ammonium thiosulfate [ATS, reference compound]
- Average fruit weight (g) ([2]; applied at 3.5 gal/A): 153 a g
- Total yield per tree (no.) ([2]; applied at 3.5 gal/A): 570 a no.
- Flower burn back (% of flowers injured) ([2]; applied at 3.5 gal/A): 50 a %
- Effect on yield [2]: did not affect yield
- Fruit (no./tree) ([4]; thinner applied at 2%, 2005): 789 no./tree
- Fruit weight (kg/tree) ([4]; thinner applied at 2%, 2005): 83.3 kg/tree
- Individual fruit weight ([4]; thinner applied at 2%, 2005): 109 g
- Fruit (no./tree) ([4]; thinner applied at 4%, 2005): 706 no./tree
- Fruit weight (kg/tree) ([4]; thinner applied at 4%, 2005): 79.8 kg/tree
- Individual fruit weight ([4]; thinner applied at 4%, 2005): 120 g
- Performance as thinner ([4]; Apple, 2005): not a good thinner
- Fruit number per peach tree compared with control [5]; 2004: reduced
- Average fruit weight (g) ([5]; applied at 5.25 gal/A, 2004): 125 a g
- Total yield per tree (no.) ([5]; applied at 5.25 gal/A, 2004): 345 c no.
